Reference: EP3563875A1, “RADIUM FOR RADIONUCLIDE THERAPY, IN COMBINATION WITH CALCIUM […] TREATMENT” (priority 2018, dated 2019)

Tests used:
[1] = intravenously or subcutaneously; cited from earlier work
[2] = Biodistribution and elimination of 223Ra in mice after i.v. administration; type: in vivo, female outbred CD1 mice; settings: one week pre-medication, oral soluble Ca2+ salt before Ra-223 i.v.; result in words
Method: The study was performed in female outbred CD1 mice imported from Charles River breeds. Animals were housed in groups of five and acclimated over five days. After acclimatization, the animals were divided into four groups. The day before the experiment the feed was taken away and at the beginning of the experiment itself the animals were weighed and placed in cages individually on a nonwoven fabric. After administration of ^223Ra (ca 200 kBq/animal in 0.05 ml of physiological saline) through vena caudalis, excrements were collected after one and four hours; after 24 hours, five mice were sacrificed from each group, another five were sacrificed after 96 hours. Blood, heart, lung, liver, pancreas, spleen, kidney, urinary bladder, wall of the colon, colon content, stomach, stomach content, thyroid gland, brain, femur, ovaries, parts of skin and muscles, and excrements from each mouse were removed. The organs and excrements in the measuring vessels were weighed and measured in a well of NaI (T1) scintillation detector. […]
Experimental layout was analogous to Example 1 or 2. In the mouse model, the animals were pre-medicated by oral administration of L-arginine for one week. L-arginine was added to the mouse food once a day. The day before administration of radium, Ca2^+ was administered orally in the form of a soluble salt. […]

[3] = as above; type: in vivo, female outbred CD1 mice
Method: The study was performed in female outbred CD1 mice imported from Charles River breeds. Animals were housed in groups of five and acclimated over five days. After acclimatization, the animals were divided into four groups. The day before the experiment the feed was taken away and at the beginning of the experiment itself the animals were weighed and placed in cages individually on a nonwoven fabric. After administration of ^223Ra (ca 200 kBq/animal in 0.05 ml of physiological saline) through vena caudalis, excrements were collected after one and four hours; after 24 hours, five mice were sacrificed from each group, another five were sacrificed after 96 hours. Blood, heart, lung, liver, pancreas, spleen, kidney, urinary bladder, wall of the colon, colon content, stomach, stomach content, thyroid gland, brain, femur, ovaries, parts of skin and muscles, and excrements from each mouse were removed. The organs and excrements in the measuring vessels were weighed and measured in a well of NaI (T1) scintillation detector.
Ten mice were medicated with CaCl2 in the concentration of 1.11 g/L for one week prior to administration of ^223Ra. The solution was used to feed per os ad libitum throughout the experiment. Table 3. Biodistribution of 223Ra with CaCl2
15 mice were pre-medicated with vitamin D3, 160 IU/mouse (0.02 mL of triglyceride oil solution of vitamin D3; 0.2 mg/ml) administered per os with part of the feed, three times a week for one week prior to administration of ^223Ra. Five of these mice were eliminated during the experiment because they refused vitamin intake. Table 4. Biodistribution of 223Ra with vitamin D3
Ten mice were medicated with zoledronic acid; 0.1 mL preparation/mouse was taken from the 4 mg/100 mL infusion solution and administered subcutaneously twice a week for one week before administration of ^223Ra. Table 5. Biodistribution of 223Ra with zoledronic acid
Ten mice were used as a control group. Table 6. Biodistribution of 223Ra
Experimental layout was analogous to Example 1 or 2. In the mouse model, the animals were pre-medicated by oral administration of L-arginine for one week. L-arginine was added to the mouse food once a day. The day before administration of radium, Ca2^+ was administered orally in the form of a soluble salt. Subsequently, Ra-223 was administered intravenously as a solution of RaCl2 in physiological NaCl saline.
Experimental layout was analogous to Example 3. In the mouse model, the animals were pre-medicated by subcutaneous injection of calcitonin for one week so that its serum concentration is about 5 nM. Two days before administration of Ra-223, Ca^2+ was administered orally in the form of a soluble salt. Subsequently, Ra-223 was administered intravenously as a solution.

[4] = cited from earlier work

For O=P(O)(O)C(O)(Cn1ccnc1)P(=O)(O)O [zoledronic acid], the NOAEL [1] is listed as 0.02 mg/kg/day.
With calcitonin the “Ra uptake in the organism” value [2] was “Ra-223 uptake increased in the organism”.
In the case of [Cl][223Ra][Cl] [223Ra, radium-223 dichloride], the “Kidney %ID/g after 24 h” value ([3]; 223Ra ca 200 kBq/animal i.v., kidney, 24 h) is reported as 1.76 %ID/g, the “Kidney %ID/g after 96 h” value ([3]; 223Ra ca 200 kBq/animal i.v., kidney, 96 h) is reported as 0.32 %ID/g and the “Large intestine content %ID/g after 24 h” value ([3]; 223Ra ca 200 kBq/animal i.v., large intestine content, 24 h) is reported as 2.14 %ID/g. For the same compound, the “Large intestine content %ID/g after 96 h” value ([3]; 223Ra ca 200 kBq/animal i.v., large intestine content, 96 h) was 0.27 %ID/g, the “Left femur %ID/g after 24 h” value ([3]; 223Ra ca 200 kBq/animal i.v., left femur, 24 h) was 13.37 %ID/g and the “Left femur %ID/g after 96 h” value ([3]; 223Ra ca 200 kBq/animal i.v., left femur, 96 h) was 10.33 %ID/g. For the same compound, the “Liver %ID/g after 24 h” value ([3]; 223Ra ca 200 kBq/animal i.v., liver, 24 h) was 0.17 %ID/g, the “Liver %ID/g after 96 h” value ([3]; 223Ra ca 200 kBq/animal i.v., liver, 96 h) was 0.10 %ID/g and the “Spleen %ID/g after 24 h” value ([3]; 223Ra ca 200 kBq/animal i.v., spleen, 24 h) was 8.59 %ID/g. For the same compound, the “Spleen %ID/g after 96 h” value ([3]; 223Ra ca 200 kBq/animal i.v., spleen, 96 h) was 6.77 %ID/g, the “Thyroid %ID/g after 24 h” value ([3]; 223Ra ca 200 kBq/animal i.v., thyroid, 24 h) was 0.39 %ID/g and the “Thyroid %ID/g after 96 h” value ([3]; 223Ra ca 200 kBq/animal i.v., thyroid, 96 h) was 0.07 %ID/g. For the same compound, the “In total after 24 h eliminated in excrements” value ([3]; 223Ra in excrements, 24 h) was 33.54 ± 16.22 % ID, the “In total after 96 h eliminated in excrements” value ([3]; 223Ra in excrements, 96 h) was 36.43 ± 12.31 % ID and the “In total after 24 h eliminated in urine” value ([3]; 223Ra in urine, 24 h) was 16.24 ± 2.29 % ID. For the same compound, the “In total after 96 h eliminated in urine” value ([3]; 223Ra in urine, 96 h) was 17.73 ± 2.34 % ID, the “activity in the blood” value ([4]; 24 hours after injection) was “less than one percent” and the “administered activity remains in the blood” value ([4]; after four hours) was “approximately four percent”. The volume of distribution ([4]; after intravenous injection) was “higher than the blood volume”, the “activity remains in the blood” value ([4]; fifteen minutes after the injection) was “about 20%” and the “activity administered excreted from the body” value ([4]; whole-body measurement seven days after injection, on average) was 76%. For the same compound, the “uptake in other organs such as the heart, liver, kidney, urinary bladder, and spleen” value ([4]; within four hours after injection) was “No significant uptake”.
For N=C(N)NCCC[C@H](N)C(=O)O [L-arginine], the “Ra uptake in the organism” value ([3]; one week pre-medication, oral soluble Ca2+ salt before Ra-223 i.v., result in words) was “Ra uptake and resorption increased in the organism”.
